Data set [1] can be described thus: Solubility test in C12-C15 alkyl benzoate oil (Finsolv TN). The data set is classed as physicochemical. Also noted: key to Solubility in Finsolv TN, dissolved amount (m/m %) 1% / Solubility in Finsolv TN, dissolved amount (m/m %) 5% / Solubility in Finsolv TN, dissolved amount (m/m %) 20% / Solubility in Finsolv TN, dissolved amount (m/m %) 50% / Solubility in Finsolv TN, dissolved amount (m/m %) 80% / Solubility in Finsolv TN, dissolved amount (m/m %) 90%: +=well-soluble; −=not soluble. The protocol:
The aminobutadiene compounds according to the present invention have an optimised solubility for cosmetic oils. […] In Table 3, the solubility of compounds 4, 12 and 13 is shown at various concentrations (+=well-soluble; -=not soluble). The compounds were dissolved at 80° C. while stirring for 1 hour and cooled down to room temperature. After 24 hours the solutions were inspected for any precipitates or crystals.

Data set [2] has as its system human skin. The data set is described as follows: Skin penetration test in diffusion cell. The data set is classed as in vitro ADME. The following applies: human skin, diffusion cell; for penetration through the skin (UV-analysis of collected receptor fluids), in words: 20 hrs. The protocol: The skin-penetration was evaluated based on the same method described on page 21 of WO2006/009451. FIG. 2 is a drawing of the skin penetration test equipment, wherein (1) indicates the position of the test sample (donor compound), (2) an ⅛″ OD× 1/32″ wall tubing, (3) the receptor input, (4) the receptor compartment and (5) the compound and receptor output that is subjected to analysis.
A compound 3 donor solution was prepared by dissolving 30 mg of compound 3 in 4 ml EtOH and 7 ml phosphate buffer (PBS) at pH 7.4. Compound 4, 6, 7, 8 and 9 donor solutions were prepared by dispersing 80 mg of these compounds in olive oil.
For each compound 4 pieces of human skin (Ø ca 3 cm, mostly epidermis) were applied on a dialysis membrane and mounted into the diffusion cell shown in the FIG. 2. The figure is a schematic drawing of the diffusion cell, wherein is indicated 1: donor compound, 2: receptor compartment, 3: receptor input, 4: compound and receptor output for analysis, 5: ⅛″ OD× 1/32″ wall tubing. The cells were mounted on a temperature controlling and stirring device. The temperature was kept at 37°. The receptor fluid was a PBS buffer. The receptor compartment was stirred magnetically. 400 μl of the donor solution was applied. The receptor fluid flowing at a speed of 1 ml/hr was collected into glass tubes (1 tube/2 hrs). After 20 hrs the penetration experiment was terminated.
Furthermore the skin parts were extracted with DMSO to dissolve any UV-absorber in the epidermis. The extracts were analysed by UV.

A short description of data set [3]: Spectral analysis: UV extinction value E at 375 nm. The data set is classed as physicochemical. The conditions noted are these: 1% solution in DMSO at 375 nm. From the text: The aminobutadiene compounds according to the present invention have a typical extinction value E of about 1100 to about 1500 AU/cm of a 1% solution in dimethylsulfoxide (DMSO, Sigma Aldrich ACS spectrophotometric grade) at 375 nm, which is typically the wavelength of the absorption maximum of such compounds. The exact value of E depends on the relative contribution of the core and the R-groups to the molecular weight, while the exact wavelength of the absorption maximum depends on the type of substituents. Spectra were obtained on a HP 8452A diode array spectrophotometer against a DMSO blanc.

Data set [4] can be described thus: Heat stability test (UV-absorption left after storage at 50° C.). The data set is classed as physicochemical. The following applies: for Heat stability: UV-absorption left after 5 days: 5 days at 50° C. in the dark; for Heat stability: UV-absorption left after 5 days / Heat stability: UV-absorption left after 50 days / Heat stability: UV-absorption left after 100 days: 1.5% in C12-C15 alkyl benzoate oil (compound 12: 5% in water), 375 nm versus sample stored at room temperature; for Heat stability: UV-absorption left after 50 days: 50 days at 50° C. in the dark; for Heat stability: UV-absorption left after 100 days: 100 days at 50° C. in the dark; for heat stability, in words: in C12-C15 alkylbenzoate oils. The method, then: Hereto, 1.5% solutions were prepared of compounds 4-11 and 13 in C12-C15 alkyl benzoate oil. […] The solutions were stored in closed vessels at 50° C. in the dark. After 5, 50 and 100 days, the UV-absorption of a diluted sample was measured at 375 nm comparative to a corresponding sample stored at room temperature. The UV-absorption left after each time span is shown in Table 4 indicated by + and − signs. ++ means >95% left, +− implies between 50-95% left, − indicates <50% left.

This note sets out measurements from US8318980B2, “UV absorbing compounds” (Fujifilm Manufacturing Europe B.V., priority 2007, dated 2012).

Entries after “also recorded” stand apart in the source; their conditions may differ.

For the compound `CCCCCCCCOC(=O)C(=CC=CN(CCCCCCN(C=CC=C(C(=O)OCCCCCCCC)S(=O)(=O)c1ccccc1)Cc1ccccc1)CCCCCCN(C=CC=C(C(=O)OCCCCCCCC)S(=O)(=O)c1ccccc1)Cc1ccccc1)S(=O)(=O)c1ccccc1` [Compound 4], the “Solubility in Finsolv TN, dissolved amount (m/m %) 1%” value in data set [1] (1% m/m, dissolved at 80° C. for 1 hour, cooled to room temperature, inspected after 24 hours) was “+”. Moreover, the “Solubility in Finsolv TN, dissolved amount (m/m %) 5%” value in data set [1] (5% m/m, dissolved at 80° C. for 1 hour, cooled to room temperature, inspected after 24 hours) is given as “+”. For the same compound, the “Solubility in Finsolv TN, dissolved amount (m/m %) 20%” value in data set [1] (20% m/m, dissolved at 80° C. for 1 hour, cooled to room temperature, inspected after 24 hours) is reported as “+”. In addition, the “Solubility in Finsolv TN, dissolved amount (m/m %) 50%” value in data set [1] (50% m/m, dissolved at 80° C. for 1 hour, cooled to room temperature, inspected after 24 hours) is recorded as “+”. Besides, the “Solubility in Finsolv TN, dissolved amount (m/m %) 80%” value in data set [1] (80% m/m, dissolved at 80° C. for 1 hour, cooled to room temperature, inspected after 24 hours) was “+”. Further, in data set [1] (90% m/m, dissolved at 80° C. for 1 hour, cooled to room temperature, inspected after 24 hours), the “Solubility in Finsolv TN, dissolved amount (m/m %) 90%” value is on record as “+”. Besides, in data set [1] (all concentrations), the “solubility in C12-C15 alkyl benzoate oil (Finsolv TN), in words” value is on record as “very well soluble at all concentrations”. In data set [2], the “penetration into or through the skin (UV analysis of DMSO skin extracts), in words” value (“penetration into or through the skin” for short) is reported as “do not penetrate into or through the skin” and the “penetration through the skin (UV-analysis of collected receptor fluids), in words” value (“penetration through the skin” for short) was “no penetration”. For the same compound, the “extinction E” value in data set [3] is reported as 1400 au/cm. In addition, in data set [4], the “Heat stability: UV-absorption left after 5 days” value (shortened to “Heat stability … after 5 days”) is reported as “++ (++ means >95% left)”; the “Heat stability: UV-absorption left after 50 days” value (shortened to “Heat stability … after 50 days”) was “++ (++ means >95% left)”; the “Heat stability: UV-absorption left after 100 days” value (“Heat stability … after 100 days” below) was “++ (++ means >95% left)”; the “heat stability, in words” value is reported as “very heat stable”.
Regarding `CCCCCCCCOC(=O)C(=CC=CN(CCCN(CCCCN(CCCN(C=CC=C(C(=O)OCCCCCCCC)S(=O)(=O)c1ccccc1)Cc1ccccc1)CCCN(C=CC=C(C(=O)OCCCCCCCC)S(=O)(=O)c1ccccc1)Cc1ccccc1)CCCN(C=CC=C(C(=O)OCCCCCCCC)S(=O)(=O)c1ccccc1)Cc1ccccc1)Cc1ccccc1)S(=O)(=O)c1ccccc1` [Compound 8], in data set [2], the “penetration into or through the skin” value is listed as “do not penetrate into or through the skin” and the “penetration through the skin” value was “no penetration”. For the same compound, in data set [4], the “Heat stability … after 5 days” value is “++ (++ means >95% left)”; the “Heat stability … after 50 days” value was “++ (++ means >95% left)”; the “Heat stability … after 100 days” value is “++ (++ means >95% left)”; the “heat stability, in words” value is “very heat stable”.
Consider `CCCCCCCCOC(=O)C(=CC=CN(CCN(C=CC=C(C(=O)OCCCCCCCC)S(=O)(=O)c1ccccc1)Cc1ccccc1)CCN(C=CC=C(C(=O)OCCCCCCCC)S(=O)(=O)c1ccccc1)Cc1ccccc1)S(=O)(=O)c1ccccc1` [Compound 9], for which, in data set [2], the “penetration into or through the skin” value is given as “do not penetrate into or through the skin” and the “penetration through the skin” value is given as “no penetration”. Besides, in data set [4], the “Heat stability … after 5 days” value is “++ (++ means >95% left)”; the “Heat stability … after 50 days” value is “++ (++ means >95% left)”; the “Heat stability … after 100 days” value was “++ (++ means >95% left)”; the “heat stability, in words” value was “very heat stable; also recorded: good heat stability”.
